US12514908B2 (MAPI PHARMA LTD., priority 2021, dated 2026)
Where “and” joins values, the source holds several entries; their conditions need not be identical. Equal entries are not always repeated.

How the values were obtained:
[1] = tested on: db/db mice; test: Example 4 death of an animal in db/db mice (Table 10B); assay type: in vivo; conditions: 0.4 mg/kg, SC, Daily, animal No. 3, after Day 7 (3 h), before Day 14
[2] = in vivo; conditions: male, db/db, mouse, plasma, sc
[3] = Example 6 semaglutide plasma levels in db/db mice; assay type: in vivo; conditions: 0.02 mg/kg/day SC daily
Description: Naïve control, n=5 • 2. Vehicle (db/db mice) SC administered daily (dose-(vehicle) 1 ml/kg/day, for 42 days), n=10 • 3.
Body weight and food consumption were monitored daily. Ad-lib fed blood glucose levels were measured every third day. Fasted blood glucose levels were measured on Day-14, Day-28 and Day-42. Glycated hemoglobin (hbA1c) levels were measured on Day-0, Day-28, and Day-42.

[4] = Example 4 semaglutide plasma concentrations in db/db mice; conditions: for Plasma concentrations, individual animals: SC, Daily, listed as Semaglutide API
[5] = Example 5 plasma concentrations and pharmacokinetic parameters in male Gottingen minipigs; assay type: in vivo
Description: […] At each time point, ˜2.0 ml of blood was withdrawn and transferred into a prelabeled K2EDTA coated vacutainers and mixed gently by inverting the tube to facilitate mixing of anticoagulant with the blood. Blood samples were kept on gel packs until centrifugation. The collected blood samples were centrifuged at 4,000 rpm for 10 min at 4° C. Plasma was separated after centrifugation. All plasma samples were transferred into pre-labeled (Animal ID No., Time point, Study No., and Group) tubes and stored at −70±10° C. until analysis. Blood glucose levels were determined for all blood collection time points.
Bioanalysis was performed using fit-for-purpose liquid chromatography mass spectrometry (LC-MS/MS) method for the quantification of semaglutide in plasma samples. Linearity range was 1 to 204 ng/ml. Semaglutide were extracted from mini pigs plasma samples using solid phase extraction technique and quantified using LC-MS/MS with Electro Spray Ionization (ESI) and multiple reaction monitoring (MRM) in positive ionization mode.

SMILES: CC[C@H](C)[C@H](NC(=O)[C@H](Cc1ccccc1)NC(=O)[C@H](CCC(=O)O)NC(=O)[C@H](CCCCNC(=O)COCCOCCNC(=O)COCCOCCNC(=O)CC[C@H](NC(=O)CCCCCCCCCCCCCCCCC(=O)O)C(=O)O)NC(=O)[C@H](C)NC(=O)[C@H](C)NC(=O)[C@H](CCC(N)=O)NC(=O)CNC(=O)[C@H](CCC(=O)O)NC(=O)[C@H](CC(C)C)NC(=O)[C@H](Cc1ccc(O)cc1)NC(=O)[C@H](CO)NC(=O)[C@H](CO)NC(=O)[C@@H](NC(=O)[C@H](CC(=O)O)NC(=O)[C@H](CO)NC(=O)[C@@H](NC(=O)[C@H](Cc1ccccc1)NC(=O)[C@@H](NC(=O)CNC(=O)[C@H](CCC(=O)O)NC(=O)C(C)(C)NC(=O)[C@@H](N)Cc1cnc[nH]1)[C@@H](C)O)[C@@H](C)O)C(C)C)C(=O)N[C@@H](C)C(=O)N[C@@H](Cc1c[nH]c2ccccc12)C(=O)N[C@@H](CC(C)C)C(=O)N[C@H](C(=O)N[C@@H](CCCNC(=N)N)C(=O)NCC(=O)N[C@@H](CCCNC(=N)N)C(=O)NCC(=O)O)C(C)C [semaglutide, [Aib8, Lys26 (γGlu-2xOEG-C18 acid), Arg34]-hGLP-1-(7-37)-OH]
- Mortality (animal died) [1]: Animal died
- level at 24 h ([2]; 0.06 mg/kg/day): 100 to 500 ng/mL
- level at 24 h ([2]; 0.4 mg/kg/day): 500 to 4500 ng/mL
- course of plasma levels [3]: fluctuations with increase in plasma levels 3 h post injections
- Plasma concentrations, individual animals ([4]; 0.06 mg/kg, Day 1 (3 h), 0.06 mg/kg): 230 ng/mL
- Plasma concentrations, individual animals ([4]; 0.06 mg/kg, Day 7 (0 h), 0.06 mg/kg): 206 ng/mL
- Plasma concentrations, individual animals ([4]; 0.06 mg/kg, Day 7 (3 h), 0.06 mg/kg): 855 ng/mL
- Plasma concentrations, individual animals ([4]; 0.06 mg/kg, Day 21 (0 h), 0.06 mg/kg): 171 ng/mL and 269 ng/mL
- Plasma concentrations, individual animals ([4]; 0.06 mg/kg, Day 21 (3 h), 0.06 mg/kg): 867 ng/mL
- Plasma concentrations, individual animals ([4]; 0.06 mg/kg, Day 28 (0 h), 0.06 mg/kg): 320 ng/mL and 257 ng/mL
- Plasma concentrations, individual animals ([4]; 0.06 mg/kg, Day 28 (3 h), 0.06 mg/kg): 474 ng/mL and 406 ng/mL
- plasma levels at 3 hrs post injection ([4]; 0.06 mg/kg/day SC daily): increase in plasma levels
- Plasma concentrations, individual animals ([4]; 0.4 mg/kg, Day 1 (3 h), 0.4 mg/kg): 1310 ng/mL
- Plasma concentrations, individual animals ([4]; 0.4 mg/kg, Day 14 (3 h), 0.4 mg/kg): 6500 ng/mL
- Plasma concentrations, individual animals ([4]; 0.4 mg/kg, Day 21 (0 h), 0.4 mg/kg): 2550 ng/mL
- Plasma concentrations, individual animals ([4]; 0.4 mg/kg, Day 28 (0 h), 0.4 mg/kg): 2880 ng/mL and 1460 ng/mL
- Plasma concentrations, individual animals ([4]; 0.4 mg/kg, Day 28 (3 h), 0.4 mg/kg): 6690 ng/mL
- plasma levels 3 hrs post injection ([4]; 0.4 mg/kg/day SC daily): increase in plasma levels
- dose dependence of the increase in plasma levels ([4]; between 0.06 and 0.4 mg/kg daily doses): dose proportional
- Mean plasma concentrations of semaglutide ([5]; Group 2, repeated SC 0.008 mg/kg every 3 days until Day 28, n=3, 0 h): 0 ng/mL
- level at 6 h ([5]; minipig, plasma, Group 2, repeated SC 0.008 mg/kg every 3 days until Day 28, n=3, 6 h): 9.64 ng/mL
- level at 12 h ([5]; minipig, plasma, Group 2, repeated SC 0.008 mg/kg every 3 days until Day 28, n=3, 12 h): 10.2 ng/mL
- level at 24 h ([5]; minipig, plasma, Group 2, repeated SC 0.008 mg/kg every 3 days until Day 28, n=3, 24 h): 11 ng/mL
- level at 48 h ([5]; minipig, plasma, Group 2, repeated SC 0.008 mg/kg every 3 days until Day 28, n=3, 48 h): 9.67 ng/mL
- level at 72 h ([5]; minipig, plasma, Group 2, repeated SC 0.008 mg/kg every 3 days until Day 28, n=3, 72 h): 9.43 ng/mL
- level at 84 h ([5]; minipig, plasma, Group 2, repeated SC 0.008 mg/kg every 3 days until Day 28, n=3, 84 h): 17.7 ng/mL
- level at 144 h ([5]; minipig, plasma, Group 2, repeated SC 0.008 mg/kg every 3 days until Day 28, n=3, 144 h): 13.1 ng/mL
- level at 156 h ([5]; minipig, plasma, Group 2, repeated SC 0.008 mg/kg every 3 days until Day 28, n=3, 156 h): 35 ng/mL
- level at 216 h ([5]; minipig, plasma, Group 2, repeated SC 0.008 mg/kg every 3 days until Day 28, n=3, 216 h): 27.3 ng/mL
- level at 228 h ([5]; minipig, plasma, Group 2, repeated SC 0.008 mg/kg every 3 days until Day 28, n=3, 228 h): 31.3 ng/mL
- level at 288 h ([5]; minipig, plasma, Group 2, repeated SC 0.008 mg/kg every 3 days until Day 28, n=3, 288 h): 23 ng/mL
- level at 300 h ([5]; minipig, plasma, Group 2, repeated SC 0.008 mg/kg every 3 days until Day 28, n=3, 300 h): 21.3 ng/mL
- level at 360 h ([5]; minipig, plasma, Group 2, repeated SC 0.008 mg/kg every 3 days until Day 28, n=3, 360 h): 34 ng/mL
- level at 504 h ([5]; minipig, plasma, Group 2, repeated SC 0.008 mg/kg every 3 days until Day 28, n=3, 504 h (For G2)): 27.3 ng/mL
- level at 648 h ([5]; minipig, plasma, Group 2, repeated SC 0.008 mg/kg every 3 days until Day 28, n=3, 648 h (For G2)): 23.4 ng/mL
- level at 720 h ([5]; minipig, plasma, Group 2, repeated SC 0.008 mg/kg every 3 days until Day 28, n=3, 720 h (Day 30)): 27 ng/mL
